According to ChEMBL document CHEMBL6120970, “Discovery and Functional Characterization of a Potent, Selective, and Metabolically Stable PROTAC of the Protein Kinases DYRK1A and DYRK1B” (J Med Chem, 2024):
The source made the active and inactive calls. The rule behind the calls is not given here.

Tests used:
[1] = biological target: T1, Protein cereblon/Dual specificity tyrosine-phosphorylation-regulated kinase 1B (Homo sapiens) (UniProt Q9Y463+Q96SW2); test: PROTAC activity at CRBN/HibiT-tagged DYRK1B in Flp-In-T-REx-293 cells assessed as induction of degradation of DYRK1B by measuring maximum efficacy at 1 uM measured after 24 hrs by NanoBiT luciferase assay relative to control; type: cell-based
[2] = biological target: Protein cereblon/Dual specificity tyrosine-phosphorylation-regulated kinase 1B (Homo sapiens, UniProt Q96SW2+Q9Y463); test: Competitive binding affinity to CRBN/DYRK1B (unknown origin) assessed as dissociation constant; type: protein assay
[3] = biological target: T2, Protein cereblon/Dual specificity tyrosine-phosphorylation-regulated kinase 1A (Homo sapiens, UniProt Q13627+Q96SW2); test: PROTAC activity at CRBN/HibiT-tagged DYRK1A in Flp-In-T-REx-293 cells assessed as induction of degradation of DYRK1A by measuring maximum efficacy at 1 uM measured after 24 hrs by NanoBiT luciferase assay relative to control; type: cell-based
[4] = biological target: T2, Protein cereblon/Dual specificity tyrosine-phosphorylation-regulated kinase 1A; test: Competitive binding affinity to CRBN/DYRK1A (unknown origin) assessed as dissociation constant; type: protein assay
[5] = biological target: T2, Protein cereblon/Dual specificity tyrosine-phosphorylation-regulated kinase 1A; test: PROTAC activity at CRBN/HibiT-tagged DYRK1A in Flp-In-T-REx-293 cells assessed as induction of degradation of DYRK1A at 100 nM by measured after 24 hrs by NanoBiT luciferase assay; type: cell-based
[6] = biological target: T2, Protein cereblon/Dual specificity tyrosine-phosphorylation-regulated kinase 1A; test: PROTAC activity at CRBN/DYRK1A in HEK293 cells expressing GFP-SF3B1 assessed as inhibition of SF3B1 phosphorylation at 10 to 100 nM measured for 24 hrs by Western blot analysis; type: cell-based; conditions: dose 10-100 nM
[7] = biological target: T2, Protein cereblon/Dual specificity tyrosine-phosphorylation-regulated kinase 1A; test: PROTAC activity at CRBN/HibiT-tagged DYRK1A in Flp-In-T-REx-293 cells assessed as induction of degradation of DYRK1A at 1 uM by measured after 24 hrs by NanoBiT luciferase assay; type: cell-based
[8] = biological target: von Hippel-Lindau disease tumor suppressor/Dual specificity tyrosine-phosphorylation-regulated kinase 1B (Homo sapiens, UniProt P40337+Q9Y463); test: Competitive binding affinity to VHL/DYRK1B (unknown origin) assessed as dissociation constant; type: protein assay
[9] = biological target: von Hippel-Lindau disease tumor suppressor/Dual specificity tyrosine-phosphorylation-regulated kinase 1B (Homo sapiens) (UniProt Q9Y463+P40337); test: PROTAC activity at VHL/HibiT-tagged DYRK1B in Flp-In-T-REx-293 cells assessed as induction of degradation of DYRK1B by measuring maximum efficacy at 0.3 uM measured after 24 hrs by NanoBiT luciferase assay relative to control; type: cell-based
[10] = biological target: von Hippel-Lindau disease tumor suppressor/Dual specificity tyrosine-phosphorylation-regulated kinase 1A (Homo sapiens) (UniProt Q13627+P40337); test: PROTAC activity at VHL/HibiT-tagged DYRK1A in Flp-In-T-REx-293 cells assessed as induction of degradation of DYRK1A by measuring maximum efficacy at 0.3 uM measured after 24 hrs by NanoBiT luciferase assay relative to control; type: cell-based
[11] = biological target: von Hippel-Lindau disease tumor suppressor/Dual specificity tyrosine-phosphorylation-regulated kinase 1A (Homo sapiens, UniProt P40337+Q13627); test: Competitive binding affinity to VHL/DYRK1A (unknown origin) assessed as dissociation constant by competition binding assay; type: protein assay
[12] = biological target: Casein kinase I isoform epsilon (Homo sapiens) (UniProt P49674); test: Binding affinity to human wild type full length CSNK1E (M1 to K416 residues) expressed in Bacterial expression system at 1 uM by kinome scan assay relative to control
[13] = biological target: T3, Serine/threonine-protein kinase haspin (Homo sapiens) (UniProt Q8TF76); test: Binding affinity to human wild type partial length Haspin (I452 to K798 residues) expressed in mammalian expression system at 1 uM by kinome scan assay relative to control
T3 sequence (whole entry): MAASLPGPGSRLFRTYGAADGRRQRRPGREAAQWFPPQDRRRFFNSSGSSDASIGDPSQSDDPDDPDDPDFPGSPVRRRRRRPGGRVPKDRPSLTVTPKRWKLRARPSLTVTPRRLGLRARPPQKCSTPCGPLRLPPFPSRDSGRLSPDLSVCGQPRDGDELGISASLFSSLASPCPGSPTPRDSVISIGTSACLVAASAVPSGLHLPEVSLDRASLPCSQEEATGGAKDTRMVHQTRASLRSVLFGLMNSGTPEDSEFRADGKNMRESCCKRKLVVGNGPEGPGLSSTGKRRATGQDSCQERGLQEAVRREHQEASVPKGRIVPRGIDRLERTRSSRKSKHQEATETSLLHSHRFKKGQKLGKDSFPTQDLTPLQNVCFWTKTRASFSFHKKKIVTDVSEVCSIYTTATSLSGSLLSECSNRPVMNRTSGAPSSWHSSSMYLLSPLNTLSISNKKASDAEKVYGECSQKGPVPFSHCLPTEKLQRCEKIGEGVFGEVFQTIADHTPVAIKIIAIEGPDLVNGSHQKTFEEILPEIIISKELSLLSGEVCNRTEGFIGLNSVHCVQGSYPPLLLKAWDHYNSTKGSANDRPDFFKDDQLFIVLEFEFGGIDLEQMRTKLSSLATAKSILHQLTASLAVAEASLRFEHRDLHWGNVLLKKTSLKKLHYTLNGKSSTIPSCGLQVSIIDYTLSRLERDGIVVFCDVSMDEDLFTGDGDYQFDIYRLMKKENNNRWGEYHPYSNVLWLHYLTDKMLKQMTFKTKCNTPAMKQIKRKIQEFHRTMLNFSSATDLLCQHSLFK

[14] = biological target: Homeodomain-interacting protein kinase 2 (Homo sapiens) (UniProt Q9H2X6); test: Binding affinity to human wild type partial length HIPK2 (M153 to S564 residues) expressed in mammalian expression system at 1 uM by kinome scan assay relative to control
[15] = biological target: Homeodomain-interacting protein kinase 3 (Homo sapiens) (UniProt Q9H422); test: Binding affinity to human wild type full length HIPK3 (M1 to L344 residues) expressed in mammalian expression system at 1 uM by kinome scan assay relative to control
[16] = biological target: Dual specificity protein kinase CLK1 (Homo sapiens) (UniProt P49759); test: Binding affinity to human wild type full length CLK1 (M1 to I484 residues) expressed in Bacterial expression system at 1 uM by kinome scan assay relative to control
[17] = biological target: T4, Dual specificity tyrosine-phosphorylation-regulated kinase 1A (Homo sapiens, UniProt Q13627); test: Binding affinity to DYRK1A (unknown origin) assessed as dissociation constant
[18] = biological target: T4, Dual specificity tyrosine-phosphorylation-regulated kinase 1A; test: Binding affinity to human wild type partial length DYRK1A (H129 to S509 residues) expressed in mammalian expression system at 1 uM by kinome scan assay relative to control
[19] = biological target: Homeodomain-interacting protein kinase 3 (Homo sapiens) (UniProt Q9H422); test: Binding affinity to human wild type partial length HIPK3 (M153 to N562 residues) expressed in mammalian expression system at 1 uM by kinome scan assay relative to control
[20] = biological target: T2, Protein cereblon/Dual specificity tyrosine-phosphorylation-regulated kinase 1A; test: PROTAC activity at CRBN/HibiT-tagged DYRK1A in Flp-In-T-REx-293 cells assessed as induction of degradation of DYRK1A by measuring maximum efficacy at 0.3 uM measured after 24 hrs by NanoBiT luciferase assay relative to control; type: cell-based
[21] = biological target: T1, Protein cereblon/Dual specificity tyrosine-phosphorylation-regulated kinase 1B (Homo sapiens); test: PROTAC activity at CRBN/HibiT-tagged DYRK1B in Flp-In-T-REx-293 cells assessed as induction of degradation of DYRK1B by measuring maximum efficacy at 0.3 uM measured after 24 hrs by NanoBiT luciferase assay relative to control; type: cell-based
[22] = biological target: Protein cereblon/DNA damage-binding protein 1 (Homo sapiens, UniProt Q96SW2); test: Displacement of Cy5-tagged thalidomide-like probe from recombinant CRBN/DDB1 (unknown origin) by competitive binding assay; type: protein assay

Cc1nc2ccc(-c3ccnc(N)c3)nc2n1-c1ccc(N2CCN(C(=O)CCCN3CCN(Cc4ccc(CNc5cccc6c5CN(C5CCC(=O)NC5=O)C6=O)cc4)CC3)CC2)c(F)c1 (stereo not drawn)
Emax [1]: 54% | Kd [2]: 5.2 nM | Emax [3]: 75% | Kd [4]: 1.7 nM

Cc1nc2ccc(-c3ccnc(N)c3)nc2n1-c1ccc(N2CCN(C(=O)CCCCN3CCN(Cc4ccc(CNc5cccc6c5CN(C5CCC(=O)NC5=O)C6=O)cc4)CC3)CC2)c(F)c1 (stereo not drawn)
Emax [1]: 38% | Kd [2]: 8.4 nM | Emax [3]: 63% | Kd [4]: 3.3 nM

Cc1nc2ccc(-c3ccnc(N)c3)nc2n1-c1ccc(N2CCN(C(=O)CCCN3CCC(n4cc(CNc5cccc6c5C(=O)N(C5CCC(=O)NC5=O)C6=O)cn4)CC3)CC2)c(F)c1 (stereo not drawn)
Emax [1]: 63% | Kd [2]: 5.1 nM | Emax [3]: 79% | Kd [4]: 2.8 nM

Cc1nc2ccc(-c3ccnc(N)c3)nc2n1-c1ccc(N2CCN(CC#Cc3ccc(N4CCC(C(=O)N5CCC(n6cc(CNc7cccc8c7C(=O)N(C7CCC(=O)N(C)C7=O)C8=O)cn6)CC5)CC4)nc3)CC2)c(F)c1 (stereo not drawn)
Activity [5]: inactive | Activity [6]: Active; Compound Partially Suppress The Phosphorylation | Activity [7]: Active; Compound Showed Modest Degradation

Cc1ncsc1-c1ccc(CNC(=O)[C@@H]2C[C@@H](O)CN2C(=O)[C@@H](NC(=O)CCOCCOCCOCCN2CCN(c3ccc(-n4c(C)nc5ccc(-c6ccnc(N)c6)nc54)cc3F)CC2)C(C)(C)C)cc1
Kd [8]: 3.6 nM | Emax [9]: 0% | Emax [10]: 0% | Kd [11]: 1.3 nM

Cc1nc2ccc(-c3ccnc(N)c3)nc2n1-c1ccc(N2CCN(CCOCCOCCOCCOCCNc3cc4c(cc3F)C(=O)N(C3CCC(=O)NC3=O)C4=O)CC2)c(F)c1 (stereo not drawn)
Emax [1]: 58% | Kd [2]: 43 nM | Emax [3]: 80% | Kd [4]: 13 nM

Cc1nc2ccc(-c3ccnc(N)c3)nc2n1-c1ccc(N2CCN(C(=O)CN3CCC(CC(=O)N4CCC(n5cc(CNc6cccc7c6C(=O)N(C6CCC(=O)NC6=O)C7=O)cn5)CC4)CC3)CC2)c(F)c1 (stereo not drawn)
Emax [1]: 65% | Emax [3]: 78% | Kd [4]: 0.64 nM

Cc1ncsc1-c1ccc(CNC(=O)[C@@H]2C[C@@H](O)CN2C(=O)[C@@H](NC(=O)CCOCCN2CCN(c3ccc(-n4c(C)nc5ccc(-c6ccnc(N)c6)nc54)cc3F)CC2)C(C)(C)C)cc1
Kd [8]: 5.5 nM | Emax [9]: 0% | Emax [10]: 11% | Kd [11]: 3.4 nM

Cc1ncsc1-c1ccc(CNC(=O)[C@@H]2C[C@@H](O)CN2C(=O)[C@@H](NC(=O)CCOCCOCCN2CCN(c3ccc(-n4c(C)nc5ccc(-c6ccnc(N)c6)nc54)cc3F)CC2)C(C)(C)C)cc1
Kd [8]: 6.9 nM | Emax [9]: 2% | Emax [10]: 5% | Kd [11]: 2.2 nM

Cc1nc2ccc(-c3ccnc(N)c3)nc2n1-c1ccc(N2CCN(C)CC2)cc1F
Activity [12]: 0.3% | Activity [13]: 0.2% | Activity [14]: 0.3% | Activity [15]: 0.7% | Activity [16]: 0.5% | Kd [17]: 0.91 nM | Activity [18]: 0% | Activity [19]: 0.7%

Cc1nc2ccc(-c3ccnc(N)c3)nc2n1-c1ccc(N2CCN(CCOCCOCCOCCNc3cccc4c3C(=O)N(C3CCC(=O)NC3=O)C4=O)CC2)c(F)c1 (stereo not drawn)
Emax [20]: 60% | Kd [2]: 3.4 nM | Emax [21]: 28% | Kd [4]: 2.3 nM

Cc1ncsc1-c1ccc(CNC(=O)[C@@H]2C[C@@H](O)CN2C(=O)[C@@H](NC(=O)CCOCCOCCOCCOCCN2CCN(c3ccc(-n4c(C)nc5ccc(-c6ccnc(N)c6)nc54)cc3F)CC2)C(C)(C)C)cc1
Kd [8]: 6.6 nM | Emax [9]: 0% | Emax [10]: 0% | Kd [11]: 1.4 nM

Cc1nc2ccc(-c3ccnc(N)c3)nc2n1-c1ccc(N2CCN(CCOCCNc3cccc4c3C(=O)N(C3CCC(=O)NC3=O)C4=O)CC2)c(F)c1 (stereo not drawn)
Emax [20]: 40% | Kd [2]: 2.4 nM | Emax [21]: 0% | Kd [4]: 1.4 nM

Cc1nc2ccc(-c3ccnc(N)c3)nc2n1-c1ccc(N2CCN(CCOCCOCCOCCC(=O)N3CCN(c4ccc5c(c4)C(=O)N(C4CCC(=O)NC4=O)C5=O)CC3)CC2)c(F)c1 (stereo not drawn)
Emax [1]: 0% | Emax [3]: 9% | Kd [4]: 5.9 nM

Cc1nc2ccc(-c3ccnc(N)c3)nc2n1-c1ccc(N2CCN(CCOCCOCCOCCC(=O)NC3CN(c4ccc5c(c4)C(=O)N(C4CCC(=O)NC4=O)C5=O)C3)CC2)c(F)c1 (stereo not drawn)
Emax [1]: 0% | Emax [3]: 27% | Kd [4]: 3.2 nM

Cc1nc2ccc(-c3ccnc(N)c3)nc2n1-c1ccc(N2CCN(CCOCCOCCNc3cccc4c3C(=O)N(C3CCC(=O)NC3=O)C4=O)CC2)c(F)c1 (stereo not drawn)
Emax [20]: 52% | Kd [2]: 3.5 nM | Emax [21]: 25% | Kd [4]: 1.4 nM

Cc1nc2ccc(-c3ccnc(N)c3)nc2n1-c1ccc(N2CCN(C(=O)CCN3CCN(Cc4ccc(CNc5cccc6c5CN(C5CCC(=O)NC5=O)C6=O)cc4)CC3)CC2)c(F)c1 (stereo not drawn)
Emax [1]: 14% | Kd [2]: 47 nM | Emax [3]: 24% | Kd [4]: 20 nM

O=C1CCC(N2C(=O)c3cccc(NCc4cnn(C5CCN(C(=O)C6CCN(c7ccccn7)CC6)CC5)c4)c3C2=O)C(=O)N1 (stereo not drawn)
IC50 [22]: 13300 nM

Cc1nc2ccc(-c3ccnc(N)c3)nc2n1-c1ccc(N2CCN(CCOCCOCCOCCC(=O)N3CCN(Cc4ccc(CNc5cccc6c5CN(C5CCC(=O)NC5=O)C6=O)cc4)CC3)CC2)c(F)c1 (stereo not drawn)
Emax [1]: 0% | Kd [2]: 16 nM | Emax [3]: 0% | Kd [4]: 5.6 nM
